Source: US5141953A, “Purpuromycin for the treatment of vaginal infections and pharmaceutical dosage forms for said use” (Gruppo Lepetit S.p.A., priority 1989, dated 1992)
Values after ≈ are worked out from the molar mass of the structure shown. Where two headings read alike, the source gives them in different places.

Legend:
[1] = tested on: Gardnerella vaginalis; settings: cited from earlier work
[2] = tested on: Gardnerella vaginalis; experiment: MIC against Gardnerella vaginalis (ATCC 14018 and 11 clinical isolates), standard two-fold dilution; assay type: cell-based; settings: for NUMBER OF STRAINS WITH MIC OF 4: MIC 4 mcg/ml; for NUMBER OF STRAINS WITH MIC OF 8: MIC 8 mcg/ml; for NUMBER OF STRAINS WITH MIC OF 16: MIC 16 mcg/ml; for NUMBER OF STRAINS WITH MIC OF 64: MIC 64 mcg/ml; for NUMBER OF STRAINS WITH MIC OF 32: MIC 32 mcg/ml
Method: The strains were grown on Casman medium (Difco) plus 5% (v/v) whole rabbit blood and 0.15 (v/v) lysed rabbit blood. Inoculum size: approximately 10^4 colony forming units per spot. Incubation in an anaerobic hood: 48 hours at 37° C.

[3] = tested on: Candida albicans; settings: cited from earlier work
[4] = tested on: yeasts; settings: cited from earlier work
[5] = tested on: Trichomonas vaginalis; settings: cited from earlier work
[6] = tested on: Gram-positive bacteria; settings: in vitro; cited from earlier work
[7] = tested on: Gram-negative bacteria; settings: in vitro; cited from earlier work
[8] = Solubility; assay type: physicochemical
[9] = tested on: Candida albicans strain SKF 2270; experiment: Topical treatment of yeast vaginal infection in ovariectomized rats; assay type: in vivo, rat; settings: topical intravaginal; for Mean log10 CFU/smear sample ± SD: twice daily for three days, untreated 3.43 ± 0.55, vehicle 3.74 ± 0.60
Method: The effectiveness of purpuromycin in the topical treatment of yeast vaginal infection was also tested in ovariectomized rats (Charles River) treated subcutaneously with 4 mg of estradiol benzoate approximately two weeks after ovariectomy. Five days later they were inoculated intravaginally with approximately 5×10^6 colony forming units (CFU) of Candida albicans strain SKF 2270 in 25 microliters of Nutrient Broth (no.2, Oxoid) containing 15% (vol/vol) of glycerol. Topical intravaginal therapy was twice daily for three days, starting one day after infection, with 100 microliters of a purpuromycin suspension in a mixture of 10:90 DMSO-polyethylene glycol 400, corresponding to 2 or 5 mg/rat/treatment. The day after the last treatment, vaginal smear samples (calibrated 10 microliter loops) were diluted and plated for viable organism counts on Sabouraud agar (Difco). Each group contained 10 animals.

[10] = tested on: Bacteroides fragilis ATCC 23745; experiment: MIC against Bacteroides fragilis, two-fold dilution method; assay type: cell-based; settings: ATCC23745, anaerobic, 48 hours at 37° C., Wilkins-Chalgren broth, approximately 10^4 CFU/ml
Method: A further experiment representative of the activity of purpuromycin against other anaerobic bacteria which are usually associated with infectious vaginitis utilized Bacteroides fragilis ATCC […] as the test microorganism. The experiment was carried out by the two-fold dilution method in microliter plates using Wilkins-Chalgren broth (Difco).
Inoculum size: approximately 10^4 colony forming units/ml. Incubation in an anerobic hood: 48 hours at 37° C. Purpuromycin was dissolved in DMSO and was added to the culture medium as above.

[11] = tested on: fungi, including filamentous fungi (e.g., Trichophyton mentagrophytes) and yeasts e.g., Candida albicans; settings: in vitro; cited from earlier work
[12] = 12 strains tested, anaerobic, 48 hours at 37° C.
[13] = MIC >128 mcg/ml, 12 strains tested, anaerobic, 48 hours at 37° C.

CN(C)C1C(=O)C(C(N)=O)=C(O)C2(O)C(=O)C3=C(O)c4c(O)cccc4C(C)(O)C3CC12 (centres unmarked) [tetracycline]
activity against Gardnerella vaginalis [1]: active

CC[C@H]1OC(=O)[C@H](C)[C@@H](O[C@H]2C[C@@](C)(OC)[C@@H](O)[C@H](C)O2)[C@H](C)[C@@H](O[C@@H]2O[C@H](C)C[C@H](N(C)C)[C@H]2O)[C@](C)(O)C[C@@H](C)C(=O)[C@H](C)[C@@H](O)[C@]1(C)O [erythromycin]
activity against Gardnerella vaginalis [1]: active

C[C@@H]1[C@H](O)[C@@H](C)/C=C/C=C/CC/C=C/C=C/C=C/C=C/C(O[C@H]2O[C@H](C)[C@@H](O)[C@H](N)[C@@H]2O)CC2O[C@](O)(CC(O)C(O)CCC(O)CC(O)CC(O)CC(=O)O[C@H]1C)CC(O)C2C(=O)O (some centres unmarked) [Nystatin]
NUMBER OF STRAINS WITH MIC OF >128 [2]: 12 strains | effectiveness against Candida albicans infections [3]: effective

C[C@@H]1[C@H](O)[C@@H](C)/C=C/C=C/C=C/C=C/C=C/C=C/C=C/[C@H](O[C@@H]2O[C@H](C)[C@@H](O)[C@H](N)[C@@H]2O)C[C@@H]2O[C@](O)(C[C@@H](O)C[C@@H](O)[C@H](O)CC[C@@H](O)C[C@@H](O)CC(=O)O[C@H]1C)C[C@H](O)[C@H]2C(=O)O [Amphotericin B]
effectiveness against Candida albicans infections [3]: effective

CC1=C(C(=O)O)N2C(=O)[C@@H](NC(=O)[C@H](N)c3ccccc3)[C@H]2SC1 [cefalexin]
activity against Gardnerella vaginalis [1]: active

Cc1ncc([N+](=O)[O-])n1CCO [Metronidazole]
NUMBER OF STRAINS WITH MIC OF 4 [2, 12]: 1 strains | NUMBER OF STRAINS WITH MIC OF 8 [2, 12]: 3 strains | NUMBER OF STRAINS WITH MIC OF 16 [2, 12]: 4 strains | NUMBER OF STRAINS WITH MIC OF 64 [2, 12]: 1 strains | NUMBER OF STRAINS WITH MIC OF 128 ([2]; MIC 128 mcg/ml, 12 strains tested, anaerobic, 48 hours at 37° C.): 3 strains | activity against Gardnerella vaginalis [1]: active | activity against yeasts [4]: not active | activity against Trichomonas vaginalis [5]: active

Clc1ccccc1C(c1ccccc1)(c1ccccc1)n1ccnc1 [Clotrimazole]
NUMBER OF STRAINS WITH MIC OF 8 [2, 12]: 2 strains | NUMBER OF STRAINS WITH MIC OF 16 [2, 12]: 1 strains | NUMBER OF STRAINS WITH MIC OF 32 [2, 12]: 2 strains | NUMBER OF STRAINS WITH MIC OF 64 [2, 12]: 5 strains | NUMBER OF STRAINS WITH MIC OF >128 [2, 13]: 2 strains | effectiveness against Candida albicans infections [3]: effective

CN[C@@H]1[C@H](O)[C@H](NC)[C@H]2O[C@@]3(O)C(=O)C[C@@H](C)O[C@H]3O[C@@H]2[C@H]1O [spectinomycin]
activity against Gardnerella vaginalis [1]: active

Clc1ccc(COC(Cn2ccnc2)c2ccc(Cl)cc2Cl)c(Cl)c1 (centres unmarked) [Miconazole]
MIC ([2]; Gardnerella vaginalis, strains resistant to the agent, read-out: MIC (on resistant strains)): 128 µg/mL (≈ 308 µM) | NUMBER OF STRAINS WITH MIC OF 4 [2, 12]: 1 strains | NUMBER OF STRAINS WITH MIC OF 8 [2, 12]: 7 strains | NUMBER OF STRAINS WITH MIC OF 32 [2, 12]: 2 strains | NUMBER OF STRAINS WITH MIC OF >128 [2, 13]: 2 strains | effectiveness against Candida albicans infections [3]: effective

Clc1ccc(COC(Cn2ccnc2)c2ccc(Cl)cc2Cl)cc1 (centres unmarked) [econozole]
effectiveness against Candida albicans infections [3]: effective

CC1(C)S[C@@H]2[C@H](NC(=O)Cc3ccccc3)C(=O)N2[C@H]1C(=O)O [penicillin G]
activity against Gardnerella vaginalis [1]: active

CO[C@@]1(NC(=O)Cc2cccs2)C(=O)N2C(C(=O)O)=C(COC(N)=O)CS[C@@H]21 [cefoxitin]
activity against Gardnerella vaginalis [1]: active

CCC[C@@H]1C[C@@H](C(=O)N[C@@H]([C@H]2O[C@H](SC)[C@H](O)[C@@H](O)[C@H]2O)[C@H](C)Cl)N(C)C1 [clindamycin]
activity against Gardnerella vaginalis [1]: active

CCS(=O)(=O)CCn1c([N+](=O)[O-])cnc1C [tinidazole]
activity against Trichomonas vaginalis [5]: active

gentamicin
activity against Gardnerella vaginalis [1]: active

COC(=O)c1cc2cc3c(c(O)c2c(=O)o1)OC1(Cc2c(O)c4c(c(O)c2O1)C(=O)C(OC)=CC4=O)CC3O (centres unmarked) [Purpuromycin]
activity against Gram-positive bacteria [6]: active | MIC ([2]; 48 h, all 12 Gardnerella vaginalis strains, read-out: concentration that inhibits the growth of all tested strains): 8 µg/mL (≈ 14.9 µM) | NUMBER OF STRAINS WITH MIC OF 8 [2, 12]: 12 strains | activity on strains resistant to metronidazole, nystatin and miconozole ([2]; resistant strains): active | activity against Gram-negative bacteria [7]: active | solubility in lower alkanols ([8]; lower alkanols): practically unsoluble | solubility in water ([8]; water): practically unsoluble | Mean log10 CFU/smear sample ± SD ([9]; 2 mg/rat/treatment): 2.00 ± 0.75 log10 CFU/smear sample | Mean log10 CFU/smear sample ± SD ([9]; 5 mg/rat/treatment, *P <0.01 vs group 1 controls): 2.28 ± 0.78 log10 CFU/smear sample | numbers of viable yeast cells/sample ([9]; 2 or 5 mg/rat/treatment): significantly reduced | MIC [10]: 0.25 µg/mL (≈ 0.464 µM) | activity against fungi [11]: active

Cc1cc(NS(=O)(=O)c2ccc(N)cc2)no1 [sulfamethoxazole]
activity against Gardnerella vaginalis [1]: active

CC1(C)S[C@@H]2[C@H](NC(=O)[C@H](N)c3ccccc3)C(=O)N2[C@H]1C(=O)O [ampicillin]
activity against Gardnerella vaginalis [1]: active

OC(Cn1cncn1)(Cn1cncn1)c1ccc(F)cc1F [fluconazole]
effectiveness against Candida albicans infections [3]: effective

O=C(Cc1cccs1)N[C@@H]1C(=O)N2C(C(=O)[O-])=C(C[n+]3ccccc3)CS[C@H]12 [cephaloridine]
activity against Gardnerella vaginalis [1]: active

CC(=O)N1CCN(c2ccc(OCC3COC(Cn4ccnc4)(c4ccc(Cl)cc4Cl)O3)cc2)CC1 (centres unmarked) [Ketoconazole]
effectiveness against Candida albicans infections [3]: effective

O=C(N[C@H](CO)[C@H](O)c1ccc([N+](=O)[O-])cc1)C(Cl)Cl [chloramphenicol]
activity against Gardnerella vaginalis [1]: active

candicidin
effectiveness against Candida albicans infections [3]: effective

CN(C)c1ccc(C(=C2C=CC(=[N+](C)C)C=C2)c2ccc(N(C)C)cc2)cc1 [gentian violet]
effectiveness against Candida albicans infections [3]: effective
